ChEMBL document CHEMBL1123046, “11C-labeled 4-isopropylantipyrine: preparation and biological evaluation as a blood flow tracer in positron emission tomography (PET)” (1985)

What was measured:
Rattus norvegicus [1] = organism: Rattus norvegicus; assay: Compound was evaluated for the measurement of Cerebral blood flow in globus pallidus of Rats (hypercapnia); type: functional
Rattus norvegicus [2] = organism: Rattus norvegicus; assay: Compound was evaluated for the measurement of Cerebral blood flow in sensorimotor cortex of Rats (hypercapnia); type: functional, Brain
Rattus norvegicus [3] = organism: Rattus norvegicus; assay: Compound was evaluated for the measurement of Cerebral blood flow in parietal cortex of Rats (hypercapnia); type: functional
Rattus norvegicus [4] = organism: Rattus norvegicus; assay: Compound was evaluated for the measurement of Cerebral blood flow in sensorimotor cortex of Rats (normocapnia); type: functional, Brain
Rattus norvegicus [5] = organism: Rattus norvegicus; assay: Compound was evaluated for the measurement of Cerebral blood flow in medial geniculate body of Rats (hypercapnia); type: functional
Rattus norvegicus [6] = organism: Rattus norvegicus; assay: Compound was evaluated for the measurement of Cerebral blood flow in nucleus ruber of Rats (normocapnia); type: functional, Brain
Rattus norvegicus [7] = organism: Rattus norvegicus; assay: Compound was evaluated for the measurement of Cerebral blood flow in cingulate cortex of Rats (normocapnia); type: functional, Brain
Rattus norvegicus [8] = organism: Rattus norvegicus; assay: Compound was evaluated for the measurement of Cerebral blood flow in inferior coliculus of Rats (hypercapnia); type: functional, Brain
Rattus norvegicus [9] = organism: Rattus norvegicus; assay: Compound was evaluated for the measurement of Cerebral blood flow in visual cortex of Rats (normocapnia); type: functional
Rattus norvegicus [10] = organism: Rattus norvegicus; assay: Compound was evaluated for the measurement of Cerebral blood flow in nucleus accumbens of Rats (normocapnia); type: functional, Brain
Rattus norvegicus [11] = organism: Rattus norvegicus; assay: Compound was evaluated for the measurement of Cerebral blood flow in piriform cortex of Rats (hypercapnia); type: functional
Rattus norvegicus [12] = organism: Rattus norvegicus; assay: Compound was evaluated for the measurement of Cerebral blood flow in auditory cortex of Rats (normocapnia); type: functional
Rattus norvegicus [13] = organism: Rattus norvegicus; assay: Compound was evaluated for the measurement of Cerebral blood flow in globus pallidus of Rats (normocapnia); type: functional
Rattus norvegicus [14] = organism: Rattus norvegicus; assay: Compound was evaluated for the measurement of Cerebral blood flow in cingulate cortex of Rats (hypercapnia); type: functional, Brain
Rattus norvegicus [15] = organism: Rattus norvegicus; assay: Compound was evaluated for the measurement of Cerebral blood flow in cerebellum of Rats (normocapnia); type: functional
Rattus norvegicus [16] = organism: Rattus norvegicus; assay: Compound was evaluated for the measurement of Cerebral blood flow in inferior coliculus of Rats (normocapnia); type: functional, Brain
Rattus norvegicus [17] = organism: Rattus norvegicus; assay: Compound was evaluated for the measurement of Cerebral blood flow in hypothalamus of Rats (hypercapnia); type: functional
Rattus norvegicus [18] = organism: Rattus norvegicus; assay: Compound was evaluated for the measurement of Cerebral blood flow in nucleus accumbens of Rats (hypercapnia); type: functional, Brain
Rattus norvegicus [19] = organism: Rattus norvegicus; assay: Compound was evaluated for the measurement of Cerebral blood flow in thalamus of Rats (hypercapnia); type: functional
Rattus norvegicus [20] = organism: Rattus norvegicus; assay: Compound was evaluated for the measurement of Cerebral blood flow in caudoputamen of Rats ((hypercapnia); type: functional, Brain
Rattus norvegicus [21] = organism: Rattus norvegicus; assay: Compound was evaluated for the measurement of Cerebral blood flow in frontal cortex of Rats (normocapnia); type: functional
Rattus norvegicus [22] = organism: Rattus norvegicus; assay: Compound was evaluated for the measurement of Cerebral blood flow in parietal cortex of Rats (normocapnia); type: functional
Rattus norvegicus [23] = organism: Rattus norvegicus; assay: Compound was evaluated for the measurement of Cerebral blood flow in septal nucleus of Rats (normocapnia); type: functional, Brain
Rattus norvegicus [24] = organism: Rattus norvegicus; assay: Compound was evaluated for the measurement of Cerebral blood flow in nucleus ruber of Rats (hypercapnia); type: functional, Brain
Rattus norvegicus [25] = organism: Rattus norvegicus; assay: Compound was evaluated for the measurement of Cerebral blood flow in auditory cortex of Rats (hypercapnia); type: functional
Rattus norvegicus [26] = organism: Rattus norvegicus; assay: Compound was evaluated for the measurement of Cerebral blood flow in visual cortex of Rats (hypercapnia); type: functional
Rattus norvegicus [27] = organism: Rattus norvegicus; assay: Compound was evaluated for the measurement of Cerebral blood flow in superior coliculus of Rats (normocapnia); type: functional, Brain
Rattus norvegicus [28] = organism: Rattus norvegicus; assay: Compound was evaluated for the measurement of Cerebral blood flow in lateral geniculate body of Rats (normocapnia); type: functional
Rattus norvegicus [29] = organism: Rattus norvegicus; assay: Compound was evaluated for the measurement of Cerebral blood flow in substantia nigra of Rats (normocapnia); type: functional
Rattus norvegicus [30] = organism: Rattus norvegicus; assay: Compound was evaluated for the measurement of Cerebral blood flow in hippocampus cortex of Rats (normocapnia); type: functional
Rattus norvegicus [31] = organism: Rattus norvegicus; assay: Compound was evaluated for the measurement of Cerebral blood flow in amygdala of Rats (hypercapnia); type: functional
Rattus norvegicus [32] = organism: Rattus norvegicus; assay: Compound was evaluated for the measurement of Cerebral blood flow in hypothalamus of Rats (normocapnia); type: functional
Rattus norvegicus [33] = organism: Rattus norvegicus; assay: Compound was evaluated for the measurement of Cerebral blood flow in superior coliculus of Rats (hypercapnia); type: functional, Brain
Rattus norvegicus [34] = organism: Rattus norvegicus; assay: Compound was evaluated for the measurement of Cerebral blood flow in cerebellum of Rats (hypercapnia); type: functional
Rattus norvegicus [35] = organism: Rattus norvegicus; assay: Compound was evaluated for the measurement of Cerebral blood flow in septal nucleus of Rats (hypercapnia); type: functional, Brain
Rattus norvegicus [36] = organism: Rattus norvegicus; assay: Compound was evaluated for the measurement of Cerebral blood flow in caudoputamen of Rats (normocapnia); type: functional, Brain
Rattus norvegicus [37] = organism: Rattus norvegicus; assay: Compound was evaluated for the measurement of Cerebral blood flow in frontal cortex of Rats (hypercapnia); type: functional
Rattus norvegicus [38] = organism: Rattus norvegicus; assay: Compound was evaluated for the measurement of Cerebral blood flow in habenula of Rats (hypercapnia); type: functional
Rattus norvegicus [39] = organism: Rattus norvegicus; assay: Compound was evaluated for the measurement of Cerebral blood flow in substantia nigra of Rats (hypercapnia); type: functional
Rattus norvegicus [40] = organism: Rattus norvegicus; assay: Compound was evaluated for the measurement of Cerebral blood flow in piriform cortex of Rats (normocapnia); type: functional
Rattus norvegicus [41] = organism: Rattus norvegicus; assay: Compound was evaluated for the measurement of Cerebral blood flow in lateral geniculate body of Rats (hypercapnia); type: functional
Rattus norvegicus [42] = organism: Rattus norvegicus; assay: Compound was evaluated for the measurement of Cerebral blood flow in thalamus of Rats (normocapnia); type: functional
Rattus norvegicus [43] = organism: Rattus norvegicus; assay: Compound was evaluated for the measurement of Cerebral blood flow in medial geniculate body of Rats (normocapnia); type: functional
Rattus norvegicus [44] = organism: Rattus norvegicus; assay: Compound was evaluated for the measurement of Cerebral blood flow in hippocampus cortex of Rats (hypercapnia); type: functional
Rattus norvegicus [45] = organism: Rattus norvegicus; assay: Compound was evaluated for the measurement of Cerebral blood flow in amygdala of Rats (normocapnia); type: functional
Rattus norvegicus [46] = organism: Rattus norvegicus; assay: Compound was evaluated for the measurement of Cerebral blood flow in habenula of Rats (normocapnia); type: functional

Compound: Cc1c(I)c(=O)n(-c2ccccc2)n1C [IODOANTIPYRINE]
- Blood flow (Rattus norvegicus [1]): 2.61 100ml g-1 min-1
- Blood flow (Rattus norvegicus [2]): 5.75 100ml g-1 min-1
- Blood flow (Rattus norvegicus [3]): 5.5 100ml g-1 min-1
- Blood flow (Rattus norvegicus [4]): 1.98 100ml g-1 min-1
- Blood flow (Rattus norvegicus [5]): 5.18 100ml g-1 min-1
- Blood flow (Rattus norvegicus [6]): 1.45 100ml g-1 min-1
- Blood flow (Rattus norvegicus [7]): 1.33 100ml g-1 min-1
- Blood flow (Rattus norvegicus [8]): 4.76 100ml g-1 min-1
- Blood flow (Rattus norvegicus [9]): 1.52 100ml g-1 min-1
- Blood flow (Rattus norvegicus [10]): 1.5 100ml g-1 min-1
- Blood flow (Rattus norvegicus [11]): 3.11 100ml g-1 min-1
- Blood flow (Rattus norvegicus [12]): 3.12 100ml g-1 min-1
- Blood flow (Rattus norvegicus [13]): 0.66 100ml g-1 min-1
- Blood flow (Rattus norvegicus [14]): 3.9 100ml g-1 min-1
- Blood flow (Rattus norvegicus [15]): 0.82 100ml g-1 min-1
- Blood flow (Rattus norvegicus [16]): 1.99 100ml g-1 min-1
- Blood flow (Rattus norvegicus [17]): 3.14 100ml g-1 min-1
- Blood flow (Rattus norvegicus [18]): 4.18 100ml g-1 min-1
- Blood flow (Rattus norvegicus [19]): 4.77 100ml g-1 min-1
- Blood flow (Rattus norvegicus [20]): 3.77 100ml g-1 min-1
- Blood flow (Rattus norvegicus [21]): 2.03 100ml g-1 min-1
- Blood flow (Rattus norvegicus [22]): 1.89 100ml g-1 min-1
- Blood flow (Rattus norvegicus [23]): 0.85 100ml g-1 min-1
- Blood flow (Rattus norvegicus [24]): 3.49 100ml g-1 min-1
- Blood flow (Rattus norvegicus [25]): 5.79 100ml g-1 min-1
- Blood flow (Rattus norvegicus [26]): 4.08 100ml g-1 min-1
- Blood flow (Rattus norvegicus [27]): 1.48 100ml g-1 min-1
- Blood flow (Rattus norvegicus [28]): 1.4 100ml g-1 min-1
- Blood flow (Rattus norvegicus [29]): 1.01 100ml g-1 min-1
- Blood flow (Rattus norvegicus [30]): 0.87 100ml g-1 min-1
- Blood flow (Rattus norvegicus [31]): 3.09 100ml g-1 min-1
- Blood flow (Rattus norvegicus [32]): 1.05 100ml g-1 min-1
- Blood flow (Rattus norvegicus [33]): 3.78 100ml g-1 min-1
- Blood flow (Rattus norvegicus [34]): 2.7 100ml g-1 min-1
- Blood flow (Rattus norvegicus [35]): 3.21 100ml g-1 min-1
- Blood flow (Rattus norvegicus [36]): 1.41 100ml g-1 min-1
- Blood flow (Rattus norvegicus [37]): 4.67 100ml g-1 min-1
- Blood flow (Rattus norvegicus [38]): 5.23 100ml g-1 min-1
- Blood flow (Rattus norvegicus [39]): 3.21 100ml g-1 min-1
- Blood flow (Rattus norvegicus [40]): 1.12 100ml g-1 min-1
- Blood flow (Rattus norvegicus [41]): 3.97 100ml g-1 min-1
- Blood flow (Rattus norvegicus [42]): 1.63 100ml g-1 min-1
- Blood flow (Rattus norvegicus [43]): 1.82 100ml g-1 min-1
- Blood flow (Rattus norvegicus [44]): 2.84 100ml g-1 min-1
- Blood flow (Rattus norvegicus [45]): 1.06 100ml g-1 min-1
- Blood flow (Rattus norvegicus [46]): 1.64 100ml g-1 min-1

Compound: Cc1c(C(C)C)c(=O)n(-c2ccccc2)n1C [PROPYPHENAZONE]
- Blood flow (Rattus norvegicus [1]): 2.85 100ml g-1 min-1
- Blood flow (Rattus norvegicus [2]): 7.24 100ml g-1 min-1
- Blood flow (Rattus norvegicus [3]): 6.95 100ml g-1 min-1
- Blood flow (Rattus norvegicus [4]): 1.91 100ml g-1 min-1
- Blood flow (Rattus norvegicus [5]): 6.94 100ml g-1 min-1
- Blood flow (Rattus norvegicus [6]): 1.36 100ml g-1 min-1
- Blood flow (Rattus norvegicus [7]): 1.34 100ml g-1 min-1
- Blood flow (Rattus norvegicus [8]): 5.3 100ml g-1 min-1
- Blood flow (Rattus norvegicus [9]): 1.3 100ml g-1 min-1
- Blood flow (Rattus norvegicus [10]): 1.45 100ml g-1 min-1
- Blood flow (Rattus norvegicus [11]): 3.56 100ml g-1 min-1
- Blood flow (Rattus norvegicus [12]): 2.36 100ml g-1 min-1
- Blood flow (Rattus norvegicus [13]): 0.73 100ml g-1 min-1
- Blood flow (Rattus norvegicus [14]): 3.45 100ml g-1 min-1
- Blood flow (Rattus norvegicus [15]): 0.83 100ml g-1 min-1
- Blood flow (Rattus norvegicus [16]): 1.99 100ml g-1 min-1
- Blood flow (Rattus norvegicus [17]): 3.63 100ml g-1 min-1
- Blood flow (Rattus norvegicus [18]): 5.49 100ml g-1 min-1
- Blood flow (Rattus norvegicus [19]): 6.84 100ml g-1 min-1
- Blood flow (Rattus norvegicus [20]): 4.18 100ml g-1 min-1
- Blood flow (Rattus norvegicus [21]): 2.26 100ml g-1 min-1
- Blood flow (Rattus norvegicus [22]): 1.89 100ml g-1 min-1
- Blood flow (Rattus norvegicus [23]): 0.91 100ml g-1 min-1
- Blood flow (Rattus norvegicus [24]): 4.91 100ml g-1 min-1
- Blood flow (Rattus norvegicus [25]): 5.66 100ml g-1 min-1
- Blood flow (Rattus norvegicus [26]): 4.97 100ml g-1 min-1
- Blood flow (Rattus norvegicus [27]): 1.49 100ml g-1 min-1
- Blood flow (Rattus norvegicus [28]): 1.45 100ml g-1 min-1
- Blood flow (Rattus norvegicus [29]): 1 100ml g-1 min-1
- Blood flow (Rattus norvegicus [30]): 0.87 100ml g-1 min-1
- Blood flow (Rattus norvegicus [31]): 3.65 100ml g-1 min-1
- Blood flow (Rattus norvegicus [32]): 0.97 100ml g-1 min-1
- Blood flow (Rattus norvegicus [33]): 4.66 100ml g-1 min-1
- Blood flow (Rattus norvegicus [34]): 1.98 100ml g-1 min-1
- Blood flow (Rattus norvegicus [35]): 3.34 100ml g-1 min-1
- Blood flow (Rattus norvegicus [36]): 1.35 100ml g-1 min-1
- Blood flow (Rattus norvegicus [37]): 5.34 100ml g-1 min-1
- Blood flow (Rattus norvegicus [38]): 5.29 100ml g-1 min-1
- Blood flow (Rattus norvegicus [39]): 3.9 100ml g-1 min-1
- Blood flow (Rattus norvegicus [40]): 1.05 100ml g-1 min-1
- Blood flow (Rattus norvegicus [41]): 5.46 100ml g-1 min-1
- Blood flow (Rattus norvegicus [42]): 1.73 100ml g-1 min-1
- Blood flow (Rattus norvegicus [43]): 2.18 100ml g-1 min-1
- Blood flow (Rattus norvegicus [44]): 2.77 100ml g-1 min-1
- Blood flow (Rattus norvegicus [45]): 0.95 100ml g-1 min-1
- Blood flow (Rattus norvegicus [46]): 1.43 100ml g-1 min-1
